Source: ChEMBL document CHEMBL1201862, “PubChem BioAssay data set” (2004)
Active and inactive are the calls of the source.

Experiments:
[1] = target: T1, Sentrin-specific protease 7 (Homo sapiens, UniProt Q9BQF6); assay: SENP7 protease inhibitors, SAR follow-up, biochemical, luminescence (AID 504497); type: functional
T1 sequence (Q9BQF6 whole entry): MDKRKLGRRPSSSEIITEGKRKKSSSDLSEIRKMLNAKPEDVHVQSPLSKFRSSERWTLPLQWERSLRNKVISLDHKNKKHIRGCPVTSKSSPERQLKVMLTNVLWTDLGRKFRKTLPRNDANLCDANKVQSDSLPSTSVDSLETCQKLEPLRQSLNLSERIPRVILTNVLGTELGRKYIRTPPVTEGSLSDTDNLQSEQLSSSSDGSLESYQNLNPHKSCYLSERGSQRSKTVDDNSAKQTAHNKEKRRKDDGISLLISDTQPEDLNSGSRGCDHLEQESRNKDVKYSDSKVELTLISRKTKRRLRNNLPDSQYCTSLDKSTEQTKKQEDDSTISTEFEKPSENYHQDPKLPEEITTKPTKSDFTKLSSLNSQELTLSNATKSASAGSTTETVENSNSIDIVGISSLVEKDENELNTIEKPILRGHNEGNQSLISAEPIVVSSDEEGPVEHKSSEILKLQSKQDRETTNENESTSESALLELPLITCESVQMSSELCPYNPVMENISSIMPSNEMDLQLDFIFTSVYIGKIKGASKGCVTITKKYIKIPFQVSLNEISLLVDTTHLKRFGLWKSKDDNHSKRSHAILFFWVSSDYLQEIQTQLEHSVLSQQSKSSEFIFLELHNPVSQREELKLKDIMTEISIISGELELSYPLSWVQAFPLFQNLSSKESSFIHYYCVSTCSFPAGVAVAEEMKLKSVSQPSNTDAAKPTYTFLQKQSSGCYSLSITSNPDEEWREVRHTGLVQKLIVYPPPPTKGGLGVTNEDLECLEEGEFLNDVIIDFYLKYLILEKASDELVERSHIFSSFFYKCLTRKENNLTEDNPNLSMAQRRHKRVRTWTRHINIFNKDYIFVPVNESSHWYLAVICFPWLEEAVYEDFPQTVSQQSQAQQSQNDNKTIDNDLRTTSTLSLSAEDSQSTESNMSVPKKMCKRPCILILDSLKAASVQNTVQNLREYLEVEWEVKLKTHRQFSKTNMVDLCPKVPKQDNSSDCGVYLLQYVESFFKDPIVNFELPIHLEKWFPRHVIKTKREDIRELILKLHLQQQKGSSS

[2] = target: T2, Caspase-3 (Homo sapiens, UniProt P42574); assay: SAR Analysis of small molecule inhibitors of Sentrin-specific proteases (SENPs) using a Caspase-3 Selectivity assay. [Related pubchem assays (depositor defined):AID2540, AID2599, AID434973, AID489001]; type: functional
T2 sequence (P42574 whole entry): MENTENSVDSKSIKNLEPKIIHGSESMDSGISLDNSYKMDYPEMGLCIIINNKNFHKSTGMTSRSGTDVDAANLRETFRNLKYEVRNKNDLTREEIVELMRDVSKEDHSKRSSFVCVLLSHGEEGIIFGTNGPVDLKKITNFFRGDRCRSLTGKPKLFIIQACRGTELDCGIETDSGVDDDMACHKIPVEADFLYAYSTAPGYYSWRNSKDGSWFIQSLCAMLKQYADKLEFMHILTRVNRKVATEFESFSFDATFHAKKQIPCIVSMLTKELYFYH

[3] = target: Polyadenylate-binding protein 1 (Homo sapiens, UniProt P11940); assay: PABP1 MLLE–PAM2 interaction inhibitors, dose response, miRNA deadenylation inhibitor project, biochemical, fluorescence polarization, Cy5-PAM2 peptide, secondary (AID 602260); type: functional; conditions: read-out: IC50_Mean
Polyadenylate-binding protein 1, sequence (P11940 whole entry): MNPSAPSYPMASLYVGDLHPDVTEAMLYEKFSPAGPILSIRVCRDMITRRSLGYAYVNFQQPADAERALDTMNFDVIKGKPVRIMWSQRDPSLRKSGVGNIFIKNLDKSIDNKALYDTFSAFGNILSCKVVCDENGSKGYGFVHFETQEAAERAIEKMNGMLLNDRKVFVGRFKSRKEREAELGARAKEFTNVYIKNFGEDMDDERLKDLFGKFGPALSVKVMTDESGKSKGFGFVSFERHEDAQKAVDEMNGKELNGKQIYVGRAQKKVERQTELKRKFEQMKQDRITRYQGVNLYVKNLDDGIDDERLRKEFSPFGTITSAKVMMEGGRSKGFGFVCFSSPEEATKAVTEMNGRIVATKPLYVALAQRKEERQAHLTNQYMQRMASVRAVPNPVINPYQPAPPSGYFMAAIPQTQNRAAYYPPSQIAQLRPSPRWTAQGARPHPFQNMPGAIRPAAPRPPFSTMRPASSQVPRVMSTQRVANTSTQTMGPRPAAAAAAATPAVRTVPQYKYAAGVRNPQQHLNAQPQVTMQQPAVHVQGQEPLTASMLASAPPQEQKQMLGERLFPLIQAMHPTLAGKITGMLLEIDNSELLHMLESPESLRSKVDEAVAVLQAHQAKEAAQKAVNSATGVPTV

[4] = target: T3, Rac GTPase-activating protein 1 (Homo sapiens, UniProt Q9H0H5); assay: MgcRacGAP GTPase-activating activity inhibitors, confirmation, biochemical, ADP Hunter fluorescence, primary and confirmatory (AID 624330); type: functional
T3 sequence (Q9H0H5 whole entry): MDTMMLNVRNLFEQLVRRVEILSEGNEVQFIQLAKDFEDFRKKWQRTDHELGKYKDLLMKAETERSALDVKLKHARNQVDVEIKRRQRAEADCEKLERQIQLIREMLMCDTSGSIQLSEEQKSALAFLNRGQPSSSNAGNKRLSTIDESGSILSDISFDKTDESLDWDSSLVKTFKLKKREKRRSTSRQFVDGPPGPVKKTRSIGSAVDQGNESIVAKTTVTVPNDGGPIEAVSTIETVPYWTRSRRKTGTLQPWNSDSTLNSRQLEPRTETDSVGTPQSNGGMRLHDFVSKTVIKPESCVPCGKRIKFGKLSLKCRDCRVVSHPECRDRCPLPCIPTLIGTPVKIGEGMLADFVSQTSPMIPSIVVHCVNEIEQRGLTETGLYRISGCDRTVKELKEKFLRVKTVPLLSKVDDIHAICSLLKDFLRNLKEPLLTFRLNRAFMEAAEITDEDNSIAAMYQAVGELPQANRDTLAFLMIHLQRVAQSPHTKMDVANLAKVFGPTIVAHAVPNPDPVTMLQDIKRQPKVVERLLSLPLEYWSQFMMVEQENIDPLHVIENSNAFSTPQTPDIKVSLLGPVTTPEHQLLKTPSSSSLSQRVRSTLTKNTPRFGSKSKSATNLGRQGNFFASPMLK

[5] = target: T4, Mitochondrial peptide methionine sulfoxide reductase (Bos taurus, UniProt P54149); type: functional;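 note: absorbance read-out, biochemical high-throughput dose-response screen for MsrA inhibitors, confirmatory; recombinant bovine MsrA coupled to E. coli TrxB with NADPH and selenocystamine; potency is for inhibitors of MsrA activity on DMSO substrate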
T4 sequence (P54149 whole entry): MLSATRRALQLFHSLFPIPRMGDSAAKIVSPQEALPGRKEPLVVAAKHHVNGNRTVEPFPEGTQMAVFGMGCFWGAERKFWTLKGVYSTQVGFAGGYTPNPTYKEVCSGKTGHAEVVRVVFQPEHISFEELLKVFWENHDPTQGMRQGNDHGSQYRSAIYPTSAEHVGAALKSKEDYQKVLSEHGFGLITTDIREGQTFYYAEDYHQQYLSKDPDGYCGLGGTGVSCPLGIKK

[6] = target: Glucose-6-phosphate 1-dehydrogenase (Homo sapiens, UniProt P11413); assay: human G6PD enzyme inhibitors, dose response, selectivity assay for P. falciparum G6PD inhibitor project, biochemical, fluorescence (AID 504792); type: functional
Glucose-6-phosphate 1-dehydrogenase, sequence (P11413 whole entry): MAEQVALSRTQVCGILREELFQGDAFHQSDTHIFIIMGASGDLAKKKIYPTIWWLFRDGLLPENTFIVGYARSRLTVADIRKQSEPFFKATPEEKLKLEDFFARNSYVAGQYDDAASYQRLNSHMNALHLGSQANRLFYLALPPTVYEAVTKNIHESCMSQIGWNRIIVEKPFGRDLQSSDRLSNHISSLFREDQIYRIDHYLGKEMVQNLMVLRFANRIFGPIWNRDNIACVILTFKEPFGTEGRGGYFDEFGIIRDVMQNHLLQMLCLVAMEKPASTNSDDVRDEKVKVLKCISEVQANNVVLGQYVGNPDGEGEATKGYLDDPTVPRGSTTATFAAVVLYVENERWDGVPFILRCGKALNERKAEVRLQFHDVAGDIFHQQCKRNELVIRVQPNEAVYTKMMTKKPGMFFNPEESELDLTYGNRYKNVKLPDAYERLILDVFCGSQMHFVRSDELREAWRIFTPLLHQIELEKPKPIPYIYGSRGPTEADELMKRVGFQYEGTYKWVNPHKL

[7] = non-specific cell cytotoxicity, dose response, cytotoxicity control for PAX8 inhibitor project, plate reader, dry powder samples (AID 743021); type: functional, cell-based
[8] = test system: INS1; assay: beta cell apoptosis inhibitors, cytokine rescue, dose response, luminescence, retest (AID 449756); type: functional, cell-based; conditions: Rattus norvegicus;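 note: cell death triggered by IL-1 beta plus TNF-alpha plus IFN-gamma mixture; protective hits raise ATP signal compared with cytokine alone wells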
[9] = microbe, parasite or virus in culture; type: functional; conditions: Mycobacterium tuberculosis
[10] = target: SUMO-activating enzyme (Homo sapiens, UniProt Q9UBT2); assay: inhibitors of in vitro SUMOylation cascade, primary screen, biochemical, HTRF, uHTS (AID 2006); type: protein-complex assay
SUMO-activating enzyme, sequence (Q9UBE0 whole entry): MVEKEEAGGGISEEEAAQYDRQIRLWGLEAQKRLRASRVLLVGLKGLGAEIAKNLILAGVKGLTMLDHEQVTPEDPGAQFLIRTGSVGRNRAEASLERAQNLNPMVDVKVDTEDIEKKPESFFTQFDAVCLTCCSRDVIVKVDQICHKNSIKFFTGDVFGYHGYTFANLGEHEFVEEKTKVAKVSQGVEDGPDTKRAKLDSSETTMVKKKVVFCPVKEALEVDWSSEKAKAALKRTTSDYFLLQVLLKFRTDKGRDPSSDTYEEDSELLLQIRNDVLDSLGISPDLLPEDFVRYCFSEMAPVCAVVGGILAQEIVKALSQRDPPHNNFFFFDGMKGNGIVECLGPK
SUMO-activating enzyme, sequence (Q9UBT2 whole entry): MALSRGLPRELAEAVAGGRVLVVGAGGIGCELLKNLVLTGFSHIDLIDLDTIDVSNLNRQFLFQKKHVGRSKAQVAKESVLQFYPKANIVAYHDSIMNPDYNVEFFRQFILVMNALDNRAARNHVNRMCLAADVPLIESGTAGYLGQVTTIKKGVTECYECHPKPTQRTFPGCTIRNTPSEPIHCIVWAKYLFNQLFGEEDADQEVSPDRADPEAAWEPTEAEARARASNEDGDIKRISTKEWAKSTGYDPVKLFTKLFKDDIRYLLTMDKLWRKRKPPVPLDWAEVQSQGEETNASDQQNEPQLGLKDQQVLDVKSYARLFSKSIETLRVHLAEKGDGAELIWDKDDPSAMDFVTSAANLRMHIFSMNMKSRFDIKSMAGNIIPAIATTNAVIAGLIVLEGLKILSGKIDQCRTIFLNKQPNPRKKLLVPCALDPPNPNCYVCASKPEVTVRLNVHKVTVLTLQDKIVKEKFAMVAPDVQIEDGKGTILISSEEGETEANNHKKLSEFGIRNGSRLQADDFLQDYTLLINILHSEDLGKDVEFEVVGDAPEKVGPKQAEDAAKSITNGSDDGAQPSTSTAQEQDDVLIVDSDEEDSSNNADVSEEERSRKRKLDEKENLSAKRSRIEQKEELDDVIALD

[11] = cytotoxicity toward NIH3T3 fibroblasts, dose response, counter-screen, cell-based, ATP luminescence, mouse fibroblasts (AID 2010); type: functional;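 note: cells exposed to compound for about 90 hours before reading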
[12] = inhibitors of intracellular T. cruzi replication, confirmation, NIH3T3 host cells, beta-gal luminescence (AID 2044); type: functional, cell-based;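 note: intracellular parasites grown in NIH/3T3 mouse fibroblasts as host cells; luminescent beta-galactosidase reporter signal from transgenic T. cruzi replicating inside host cells; inhibitors lower the luminescence signal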

For `Oc1ccc(/C=N/Nc2cc(N3CCCC3)nc(N3CCCC3)n2)cc1`, the IC50 [1] was > 99 µM (inactive), the IC50 [2] was > 99 µM (inactive) and the IC50 [3] was > 66 µM (inactive).

For `COc1ccc(S(=O)(=O)/N=C2\C=C(Nc3ccc(O)cc3)C(=O)c3ccccc32)cc1`, the IC50 [4] was 50.7 µM (active), the IC50 [5] was 197 µM (inactive) and the IC50 [6] was > 80 µM (inactive). The AC50 [7] was 7.4 µM (active) and the AC50 [8] was 0.592 µM (active).

In the case of `COc1ccc(/C=N/Nc2cc(N3CCCC3)nc(N3CCCC3)n2)cc1`, the CC50 [9] is reported as 20.3 µM (active), the IC50 [10] is reported as 2.31 µM (active) and the EC50 [11] is reported as 8.97 µM (active). The EC50 [12] was 1.71 µM (active).
